Measured values from patent US12281149B2, “Modulators of G-protein coupled receptors” (priority 2021, dated 2025).
*1 amine or outer side, *2 acyl side, *3 side chain or, on linkers, in order; H or OH if unused. Where a SMILES comes first, the peptide text is derived from it. Side-chain parts run from the residue outwards. [ ]: non-standard residue; d: D form. The star is where a group is joined. Isobutyryl(2-(3-CN-5-F-Ph)) = CC(C)(C(=O)*)c1cc(F)cc(C#N)c1; cPentCO(1-(4-ClPh)) = O=C(C1(c2ccc(Cl)cc2)CCCC1)*; Azetidine3carboxylic = O=C(C1CN([*:1])C1)[*:2]; C20 diacid = O=C(O)CCCCCCCCCCCCCCCCCCC(=O)*; γGlu = O=C(O)[C@H](CCC(=O)[*:2])N[*:1]; X17 = CC(C)(C(=O)*)c1ccc(F)c(F)c1; X18 = O=C(C1(c2cccc(F)c2)CCCC1)*; X77 = CC(C(=O)*)c1cc(F)cc(F)c1; AEEA = NCCOCCOCC(=O)O; Aib = CC(C)(N)C(=O)O; βAla = NCCC(=O)O

Tests used:
Type in all cases: cell-based
GIP receptor [1] = molecular target: T1, GIP receptor (Homo sapiens, UniProt P48546); test: HitHunter cAMP assay, GIP receptor; details: for EC50: CHO cells stably expressing GIP receptor, cAMP accumulation, 30 min, read-out: EC50 GIP-1R; for Emax: CHO cells, cAMP, normalized to maximum signal from GIP (high) and DMSO (low), read-out: Emax GIP-1R
T1 sequence (P48546 22-466): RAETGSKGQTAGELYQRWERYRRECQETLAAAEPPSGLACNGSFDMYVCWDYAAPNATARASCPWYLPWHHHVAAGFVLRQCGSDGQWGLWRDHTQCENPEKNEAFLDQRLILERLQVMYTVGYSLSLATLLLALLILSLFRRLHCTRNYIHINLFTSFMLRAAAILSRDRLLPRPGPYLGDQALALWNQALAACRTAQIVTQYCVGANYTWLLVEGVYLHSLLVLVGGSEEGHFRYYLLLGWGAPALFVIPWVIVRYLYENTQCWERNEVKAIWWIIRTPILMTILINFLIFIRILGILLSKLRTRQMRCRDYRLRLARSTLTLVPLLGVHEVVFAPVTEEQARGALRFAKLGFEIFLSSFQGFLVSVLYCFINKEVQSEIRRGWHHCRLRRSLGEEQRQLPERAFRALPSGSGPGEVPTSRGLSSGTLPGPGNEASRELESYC

GIP receptor [2] = molecular target: T1, GIP receptor; test: PathHunter β-arrestin assay, GIP receptor; design: host or cells: PathHunter CHO-K1 GIPR β-Arrestin Cell Line; details: β-arrestin-2 recruitment, PathHunter CHO-K1 GIPR β-Arrestin Cell Line, 90 min at 37° C.; normalized to GIP; read-out: GIPR β Arrestin EC50
GLP-1 receptor [3] = molecular target: T2, GLP-1 receptor (Homo sapiens, UniProt P43220); test: HitHunter cAMP assay, GLP-1 receptor; details: for EC50: CHO cells stably expressing human GLP-1 receptor, cAMP accumulation, 30 min, read-out: EC50 GLP-1R; for Emax: CHO cells, cAMP, normalized to maximum signal from GLP-1 (high) and DMSO (low), read-out: Emax GLP-1R
GLP-1 receptor [4] = molecular target: T2, GLP-1 receptor; test: PathHunter β-arrestin assay, GLP-1 receptor; design: host or cells: PathHunter CHO-K1 GLP1R β-Arrestin Cell Line; details: β-arrestin-2 recruitment, PathHunter CHO-K1 GLP1R β-Arrestin Cell Line, 90 min at 37° C.; normalized to GLP-1; read-out: GLP-1R β Arrestin EC50

T2 sequence (P43220 24-463): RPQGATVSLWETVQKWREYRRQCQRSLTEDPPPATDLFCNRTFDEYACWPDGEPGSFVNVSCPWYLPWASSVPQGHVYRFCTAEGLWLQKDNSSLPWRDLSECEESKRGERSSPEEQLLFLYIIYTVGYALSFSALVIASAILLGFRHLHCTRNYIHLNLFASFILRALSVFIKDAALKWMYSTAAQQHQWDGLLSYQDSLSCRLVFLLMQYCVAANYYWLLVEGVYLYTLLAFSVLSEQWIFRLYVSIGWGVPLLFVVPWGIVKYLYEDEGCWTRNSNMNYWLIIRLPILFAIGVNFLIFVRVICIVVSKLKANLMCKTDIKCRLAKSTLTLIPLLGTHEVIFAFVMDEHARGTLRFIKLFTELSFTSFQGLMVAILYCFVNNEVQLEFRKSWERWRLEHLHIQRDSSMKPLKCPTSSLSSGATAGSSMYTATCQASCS

Structure (SMILES) | EC50 (GIP receptor [1]) [nM] | Emax (GIP receptor [1]) [%] | EC50 (GIP receptor [2]) [nM] | EC50 (GLP-1 receptor [3]) [nM] | Emax (GLP-1 receptor [3]) [%] | EC50 (GLP-1 receptor [4]) [nM]
CC[C@H](C)[C@H](NC(=O)[C@H](CC(C)C)NC(=O)[C@H](Cc1c[nH]c2ccccc12)NC(=O)[C@H](CCC(N)=O)NC(=O)[C@@H](NC(=O)[C@H](Cc1ccccc1)NC(=O)[C@H](C)NC(=O)[C@H](CCCCNC(=O)COCCOCCNC(=O)COCCOCCNC(=O)CC[C@H](NC(=O)CCCCCCCCCCCCCCCCCCC(=O)O)C(=O)O)NC(=O)[C@H](CCC(N)=O)NC(=O)[C@H](C)NC(=O)[C@@H](NC(=O)[C@H](CCCCN)NC(=O)[C@H](CC(=O)O)NC(=O)[C@H](CC(C)C)NC(=O)C(C)(C)NC(=O)[C@@H](NC(=O)[C@H](CO)NC(=O)[C@H](Cc1ccc(O)cc1)NC(=O)[C@H](CC(=O)O)NC(=O)[C@H](CO)NC(=O)[C@@H](NC(=O)[C@H](Cc1ccccc1)NC(=O)[C@@H](NC(=O)CNC(=O)[C@H](CCC(=O)O)NC(=O)C1CN(C(=O)C(C)(C)c2cc(F)cc(C#N)c2)C1)[C@@H](C)O)[C@@H](C)O)[C@@H](C)CC)[C@@H](C)CC)C(C)C)C(=O)N[C@@H](C)C(=O)NCC(=O)NCC(=O)N1CCC[C@H]1C(=O)N[C@@H](CO)C(=O)N[C@@H](CO)C(=O)NCC(=O)N[C@@H](C)C(=O)N1CCC[C@H]1C(=O)N1CCC[C@H]1C(=O)N1CCC[C@H]1C(=O)N[C@@H](CO)C(N)=O [Compound 213] ({Isobutyryl(2-(3-CN-5-F-Ph))}-[Azetidine3carboxylic]EGTFTSDYSI[Aib]LDKIAQK([AEEA-AEEA-γGlu-C20 diacid])AFVQWLIAGGPSSGAPPPS-NH2) | 100 to 1000 | 92 | > 1000 | 100 to 1000 | 78 | > 1000
CC[C@H](C)[C@H](NC(=O)[C@H](CC(C)C)NC(=O)[C@H](Cc1c[nH]c2ccccc12)NC(=O)[C@H](CCC(N)=O)NC(=O)[C@@H](NC(=O)[C@H](Cc1ccccc1)NC(=O)[C@H](C)NC(=O)[C@H](CCCCNC(=O)COCCOCCNC(=O)COCCOCCNC(=O)CC[C@H](NC(=O)CCCCCCCCCCCCCCCCCCC(=O)O)C(=O)O)NC(=O)[C@H](CCC(N)=O)NC(=O)[C@H](C)NC(=O)[C@@H](NC(=O)[C@H](CCCCN)NC(=O)[C@H](CC(=O)O)NC(=O)[C@H](CC(C)C)NC(=O)C(C)(C)NC(=O)[C@@H](NC(=O)[C@H](CO)NC(=O)[C@H](Cc1ccc(O)cc1)NC(=O)[C@H](CC(=O)O)NC(=O)[C@H](CO)NC(=O)[C@@H](NC(=O)[C@H](Cc1ccccc1)NC(=O)[C@@H](NC(=O)CNC(=O)[C@H](CCC(=O)O)NC(=O)CCNC(=O)C1(c2cccc(F)c2)CCCC1)[C@@H](C)O)[C@@H](C)O)[C@@H](C)CC)[C@@H](C)CC)C(C)C)C(=O)N[C@@H](C)C(=O)NCC(=O)NCC(=O)N1CCC[C@H]1C(=O)N[C@@H](CO)C(=O)N[C@@H](CO)C(=O)NCC(=O)N[C@@H](C)C(=O)N1CCC[C@H]1C(=O)N1CCC[C@H]1C(=O)N1CCC[C@H]1C(=O)N[C@@H](CO)C(N)=O [Compound 214] ({X18-βAla}-EGTFTSDYSI[Aib]LDKIAQK([AEEA-AEEA-γGlu-C20 diacid])AFVQWLIAGGPSSGAPPPS-NH2) | 0.1 to 1 | 101 | > 1000 | 0.1 to 1 | 97 | > 1000
CC[C@H](C)[C@H](NC(=O)[C@H](CC(C)C)NC(=O)[C@H](Cc1c[nH]c2ccccc12)NC(=O)[C@H](CCC(N)=O)NC(=O)[C@@H](NC(=O)[C@H](Cc1ccccc1)NC(=O)[C@H](C)NC(=O)[C@H](CCCCNC(=O)COCCOCCNC(=O)COCCOCCNC(=O)CC[C@H](NC(=O)CCCCCCCCCCCCCCCCCCC(=O)O)C(=O)O)NC(=O)[C@H](CCC(N)=O)NC(=O)[C@H](C)NC(=O)[C@@H](NC(=O)[C@H](CCCCN)NC(=O)[C@H](CC(=O)O)NC(=O)[C@H](CC(C)C)NC(=O)C(C)(C)NC(=O)[C@@H](NC(=O)[C@H](CO)NC(=O)[C@H](Cc1ccc(O)cc1)NC(=O)[C@H](CC(=O)O)NC(=O)[C@H](CO)NC(=O)[C@@H](NC(=O)[C@H](Cc1ccccc1)NC(=O)[C@@H](NC(=O)CNC(=O)[C@H](CCC(=O)O)NC(=O)CCNC(=O)C(C)(C)c1ccc(F)c(F)c1)[C@@H](C)O)[C@@H](C)O)[C@@H](C)CC)[C@@H](C)CC)C(C)C)C(=O)N[C@@H](C)C(=O)NCC(=O)NCC(=O)N1CCC[C@H]1C(=O)N[C@@H](CO)C(=O)N[C@@H](CO)C(=O)NCC(=O)N[C@@H](C)C(=O)N1CCC[C@H]1C(=O)N1CCC[C@H]1C(=O)N1CCC[C@H]1C(=O)N[C@@H](CO)C(N)=O [Compound 215] ({X17-βAla}-EGTFTSDYSI[Aib]LDKIAQK([AEEA-AEEA-γGlu-C20 diacid])AFVQWLIAGGPSSGAPPPS-NH2) | 0.1 to 1 | 99 | < 1000 | 0.1 to 1 | 98 | > 1000
CC[C@H](C)[C@H](NC(=O)[C@H](CC(C)C)NC(=O)[C@H](Cc1c[nH]c2ccccc12)NC(=O)[C@H](CCC(N)=O)NC(=O)[C@@H](NC(=O)[C@H](Cc1ccccc1)NC(=O)[C@H](C)NC(=O)[C@H](CCCCNC(=O)COCCOCCNC(=O)COCCOCCNC(=O)CC[C@H](NC(=O)CCCCCCCCCCCCCCCCCCC(=O)O)C(=O)O)NC(=O)[C@H](CCC(N)=O)NC(=O)[C@H](C)NC(=O)[C@@H](NC(=O)[C@H](CCCCN)NC(=O)[C@H](CC(=O)O)NC(=O)[C@H](CC(C)C)NC(=O)C(C)(C)NC(=O)[C@@H](NC(=O)[C@H](CO)NC(=O)[C@H](Cc1ccc(O)cc1)NC(=O)[C@H](CC(=O)O)NC(=O)[C@H](CO)NC(=O)[C@@H](NC(=O)[C@H](Cc1ccccc1)NC(=O)[C@@H](NC(=O)CNC(=O)[C@H](CCC(=O)O)NC(=O)CCNC(=O)C(C)c1cc(F)cc(F)c1)[C@@H](C)O)[C@@H](C)O)[C@@H](C)CC)[C@@H](C)CC)C(C)C)C(=O)N[C@@H](C)C(=O)NCC(=O)NCC(=O)N1CCC[C@H]1C(=O)N[C@@H](CO)C(=O)N[C@@H](CO)C(=O)NCC(=O)N[C@@H](C)C(=O)N1CCC[C@H]1C(=O)N1CCC[C@H]1C(=O)N1CCC[C@H]1C(=O)N[C@@H](CO)C(N)=O (stereo partly drawn) [Compound 216] ({X77-βAla}-EGTFTSDYSI[Aib]LDKIAQK([AEEA-AEEA-γGlu-C20 diacid])AFVQWLIAGGPSSGAPPPS-NH2) | 10 to 100 | 93 | > 1000 | 0.1 to 1 | 102 | > 1000
CC[C@H](C)[C@H](NC(=O)[C@H](CC(C)C)NC(=O)[C@H](Cc1c[nH]c2ccccc12)NC(=O)[C@H](CCC(N)=O)NC(=O)[C@@H](NC(=O)[C@H](Cc1ccccc1)NC(=O)[C@H](C)NC(=O)[C@H](CCCCNC(=O)COCCOCCNC(=O)COCCOCCNC(=O)CC[C@H](NC(=O)CCCCCCCCCCCCCCCCCCC(=O)O)C(=O)O)NC(=O)[C@H](CCC(N)=O)NC(=O)[C@H](C)NC(=O)[C@@H](NC(=O)[C@H](CCCCN)NC(=O)[C@H](CC(=O)O)NC(=O)[C@H](CC(C)C)NC(=O)C(C)(C)NC(=O)[C@@H](NC(=O)[C@H](CO)NC(=O)[C@H](Cc1ccc(O)cc1)NC(=O)[C@H](CC(=O)O)NC(=O)[C@H](CO)NC(=O)[C@@H](NC(=O)[C@H](Cc1ccccc1)NC(=O)[C@@H](NC(=O)CNC(=O)[C@H](CCC(=O)O)NC(=O)CCNC(=O)C1(c2ccc(Cl)cc2)CCCC1)[C@@H](C)O)[C@@H](C)O)[C@@H](C)CC)[C@@H](C)CC)C(C)C)C(=O)N[C@@H](C)C(=O)NCC(=O)NCC(=O)N1CCC[C@H]1C(=O)N[C@@H](CO)C(=O)N[C@@H](CO)C(=O)NCC(=O)N[C@@H](C)C(=O)N1CCC[C@H]1C(=O)N1CCC[C@H]1C(=O)N1CCC[C@H]1C(=O)N[C@@H](CO)C(N)=O [Compound 217] ({cPentCO(1-(4-ClPh))-βAla}-EGTFTSDYSI[Aib]LDKIAQK([AEEA-AEEA-γGlu-C20 diacid])AFVQWLIAGGPSSGAPPPS-NH2) | 0.1 to 1 | 108 | > 1000 | 0.1 to 1 | 101 | > 1000
